The target in the assay is T1, hM3Dq (Homo sapiens, UniProt P20309, A239G/Y149C).
T1 construct: HA (N); expressed in transfected cells; host or cells: neurons (striatal D1-MSNs, some SNr neurons) of C57BL/6J mice or cynomolgus macaques transduced by nigral AAV8R12-G88P3-HA-hM3Dq
Kind of assay: Electrophysiological recording in caudate after CNO infusion, AAV8R12-G88P3-HA-hM3Dq macaques. The assay is classed as in vivo. As to the method:
Electrophysiological recording was performed through a recording chamber while the monkey was anesthetized. Neural responses were recorded by a 16-channel linear probe (Plexon Inc, Uprobe) driven by a mechanical microdrive (Alpha Omega, FlexMT). Signals were passed through a head stage (Plexon Inc, HST/16V-G20 LN) and then split and filtered between 300 Hz and 5 kHz to identify spiking activity with an amplifier system (Plexon Inc, OmniPlex). Detected spikes were then sorted by commercially available software (Plexon Inc, Offline Sorter) for further analysis. To quantify the effect of CNO/DCZ injection, neural activity was recorded for 60 minutes following CNO/DCZ injection. The response time-course for each channel was obtained by counting the spikes within every 10-minute window and then normalizing to the maximal.
To determine the effect of CNO/DCZ injection on the direction of signal change, we performed Pearson correlation between neural responses and time using the ‘corr’ function in Matlab, which generates the correlation coefficient ‘r’ and significant level ‘p’. A neuron was considered to have “Increased” activity when r>0 and p<[…]; and considered to have “Decreased” activity when r<0 and p<0.05. Otherwise, neurons were considered to be “Unchanged” in their neural activities. The responses of all increased neurons were then averaged after being normalized by the maximal response (Crowe et al., 2014; Dai and Wang, 2018; Hirokawa et al., 2019) following CNO/DCZ injection, and then plotted as a function of time to generate the normalized population response.

[1] abbreviates: monkey CM045, 34 cells in caudate.

T1 sequence (P20309 whole entry Y149C/A239G): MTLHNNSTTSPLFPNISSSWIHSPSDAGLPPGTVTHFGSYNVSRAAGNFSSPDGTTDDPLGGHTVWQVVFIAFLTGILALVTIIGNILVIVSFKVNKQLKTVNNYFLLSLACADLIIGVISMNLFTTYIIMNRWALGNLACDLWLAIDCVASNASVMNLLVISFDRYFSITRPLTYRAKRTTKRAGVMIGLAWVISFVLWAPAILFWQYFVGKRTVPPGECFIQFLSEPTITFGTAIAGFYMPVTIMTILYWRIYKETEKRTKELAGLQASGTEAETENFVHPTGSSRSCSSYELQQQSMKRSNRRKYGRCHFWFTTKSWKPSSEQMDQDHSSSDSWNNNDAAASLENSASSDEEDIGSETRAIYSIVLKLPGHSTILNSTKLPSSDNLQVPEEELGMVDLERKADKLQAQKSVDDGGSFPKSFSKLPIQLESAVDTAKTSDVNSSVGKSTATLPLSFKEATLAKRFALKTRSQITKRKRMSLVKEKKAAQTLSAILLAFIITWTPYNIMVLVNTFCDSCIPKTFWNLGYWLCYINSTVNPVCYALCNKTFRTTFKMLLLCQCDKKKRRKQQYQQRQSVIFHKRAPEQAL

Take `C[N+]1([O-])CCN(C2=Nc3cc(Cl)ccc3Nc3ccccc32)CC1` [CNO, clozapine N-oxide]: where the note is “34 total cells in the caudate”, the “cells activated (FIG. 12L)” value was determined as 67.6%, the “cells inactivated (FIG. 12L)” value is given as 2.9% and the “cells unchanged (FIG. 12L)” value was 29.4%. Under setting [1], the “cells activated (FIG. 12C)” value is listed as 70.6%, the “cells inactivated (FIG. 12C)” value worked out at 8.8% and the “cells unchanged (FIG. 12C)” value turned out to be 20.6%.

The values above are taken from US20250382588A1, “CHIMERIC AAV AND USES THEREOF” (priority 2023, published 2025).
